Results on 9 compounds are retold here after patent US20100260684A1, “USE OF 3-ALKANOYLOXYMETHOXYCARBONYL NITROXIDE ESTERS AS OXIMETRY PROBES FOR MEASUREMENT OF OXYGEN STATUS IN TISSUES” (priority 2007, published 2010).

The chromatographic logP is lipophilicity estimated from chromatographic retention. Lower therefore signals a more hydrophilic compound. The logP is the decadic logarithm of the partition coefficient of the neutral form, usually between octanol and water. Low readings indicate lower lipophilicity, high ones higher lipophilicity.

Where two headings read alike, the source gives them in different places.

One series concerns Jurkat lymphocytes. It counts as cell-based. The procedure:
Cellular Loading of Nitroxides. Jurkat lymphocytes were cultured and loaded with nitroxides as previously described (5,6). […] After incubation, cells were washed 3 times in Hanks' Balanced Salt Solution (HBSS), and resuspended in […] HBSS. To lyse cells, […] digitonin was added to each cell suspension, which was then sonicated for […] in a bath sonicator (model G1 12SPIG, Laboratory Supplies Company, Inc., Hicksville, N.Y.). The lysate was assayed for nitroxide content by EPR spectroscopy. […] EPR Spectroscopy. EPR spectra were recorded on an X-band spectrometer (model E-109, Varian Inc., Palo Alto, Calif.) at the following settings: microwave power, 20 mW; microwave frequency, 9.55 GHz; field set, 3335 G; modulation frequency, 1 kHz; modulation amplitude, 0.5 G; field sweep, 80 G at 26.7 G min^-1 Where the amplitude of only the center spectral line was required, the sweep width was 8 […] software (Scientific Software Solutions, Northville, Mich.) was used for spectrometer control and data acquisition. Nitroxide signal was measured as the peak-to-trough amplitude of the center line of the three-line spectrum.

Series [1] can be described thus: In vivo EPR: nitroxide entrapped in brain after iv injection and saline wash of head vasculature. The note with it: mice, vasculature washed with normal saline.
Series [2] can be described thus: Determination of logP of labile esters from HPLC capacity factors. The note with it: pH 6.
For series [3] the following is noted: pH 6.
The conditions of series [4]: mouse, in vivo, iv.
The conditions of series [5]: literature values used for logP vs. logk' calibration line; cited from earlier work.

As to “3-heptanoylmethoxycarbonyl-2,2,5,5-tetramethyl-1-pyrrolidinyloxyl [Ester 7]”, in the series on Jurkat lymphocytes, the “intracellular loading of nitroxide [1]” value is on record as “no additional improvement in loading”. Take `CC(=O)OCOC(=O)C1CC(C)(C)N([O])C1(C)C` (centres unmarked) [Ester 2, 3-Acetoxymethoxycarbonyl-2,2,5,5-tetramethyl-1-pyrrolidinyloxyl]: the “percentage of original dose crossed the blood brain barrier and entrapped in the brain as nitroxide [1]” value in series [1] (10-min point) and in series [1] (20-min point) was “about 42%” throughout. In the case of `CCC(=O)OCOC(=O)C1CC(C)(C)N([O])C1(C)C` (centres unmarked) [Ester 3, 3-propanoylmethyloxycarbonyl-2,2,5,5-tetramethyl-1-pyrrolidinyloxyl], the “intracellular loading of nitroxide [1]” value with Jurkat lymphocytes is listed as “negligible effect on intracellular loading”.

The compound `CCC(=O)OCOC(=O)C1CC(C)(C)N(O)C1(C)C` (centres unmarked) [Ester 3] showed a chromatographic logP in series [2] of 1.33.

With `CCCCC(=O)OCOC(=O)C1CC(C)(C)N([O])C1(C)C` (centres unmarked) [Ester 4, 3-pentanoylmethoxycarbonyl-2,2,5,5-tetramethyl-1-pyrrolidinyloxyl], the lipophilicity (logP) in series [3] is reported as 2.67. Also, the “percentage of original dose crossed the blood brain barrier and entrapped in the brain as nitroxide [1]” value in series [4] is reported as “about 65%”. Consider `CCCCC(=O)OCOC(=O)C1CC(C)(C)N(O)C1(C)C` (centres unmarked) [Ester 4], for which the chromatographic logP in series [2] is 2.67. In series [3], `CC(C)(C)C(=O)OCOC(=O)C1CC(C)(C)N([O])C1(C)C` (centres unmarked) [Ester 6] had a logP of 2.60. The compound `CCCCCCC(=O)OCOC(=O)C1CC(C)(C)N(O)C1(C)C` (centres unmarked) [Ester 7] gave a chromatographic logP in series [2] of 3.54.

As for `C[C@]12CCC(=O)C=C1CC[C@@H]1[C@@H]2[C@@H](O)C[C@@]2(C)[C@H]1CC[C@]2(O)C(=O)CO` [hydrocortisone], the “known logP” value in series [5] is on record as 1.53.
